The record followed here is ChEMBL document CHEMBL4742394, “3-(aryl or heteroaryl) methyleneindolin-2-one derivatives as inhibitors of cancer stem cell pathway kinases for the treatment of cancer” (2019).

The species named for one assay is Homo sapiens. Nature of the assay: Inhibition of ERK phosphorylation (unknown origin) incubated for 6 hrs by Western blot analysis based cell based assay.
Assay [1] has as its target Small ribosomal subunit protein eS6 (Homo sapiens) (UniProt P62753). Nature of the assay: Inhibition of RPS6 phosphorylation (unknown origin) incubated for 6 hrs by Western blot analysis based cell based assay.
For assay [2] the target is unchanged. Put plainly: Inhibition of RPS6 phosphorylation in human HeLa cells assessed as Ser240/244 phosphorylation level at 5 uM incubated for 6 hrs. In kind it is cell-based. More on the design: scale not given: the % may be the effect or the level left.
Assay [3] has the same target. Put plainly: Inhibition of RPS6 phosphorylation in human HeLa cells assessed as Ser235/236 phosphorylation level at 5 uM incubated for 6 hrs. In kind it is cell-based. More on the design: scale not given: the % may be the effect or the level left.
The subject of assay [4] is FaDu. Put plainly: Growth inhibition of human FaDu cells incubated for 72 hrs by cell-titer Glo luminescence assay. In kind it is functional, cell-based.
The subject of assay [5] is FaDu. Put plainly: Growth inhibition of human FaDu cancer stem cells incubated for 72 hrs by cell-titer Glo luminescence assay. In kind it is functional, cell-based.

Activity calls are given as the source filed them. No cut-off for these calls is given here.

As for `CCNC(=O)c1c(C)[nH]c(/C=C2\C(=O)Nc3ccc(-c4csc(-c5ccccc5)n4)cc32)c1C`, the inhibition result (in the assay filed under Homo sapiens; in assay [1]) was “Active” each time.
Turning to `CCN(CC)CCNC(=O)c1c(C)[nH]c(/C=C2\C(=O)Nc3ccc(-c4n[nH]c5ccccc45)cc32)c1C`, the figures for the Activity in assay [2] and in assay [3] were 26% and 4%, respectively.
As for `Cc1cc(C)c(/C=C2\C(=O)Nc3ccc(-c4ccc(C=O)cc4)cc32)[nH]1`, the inhibition entry in the assay filed under Homo sapiens is “Active”.
Regarding `Cc1cc(C)c(/C=C2\C(=O)Nc3ccc(-c4csc(C5CCNCC5)n4)cc32)[nH]1`, the Activity in assay [2] and in assay [3] was 76% each time.
`Cc1ccc(-c2nc(-c3ccc4c(c3)/C(=C/c3[nH]c(C)c(C(=O)N5CCN(C)CC5)c3C)C(=O)N4)cs2)cc1` came in with a half-maximal inhibitory concentration (IC50) in the assay on FaDu [4] of 23.7 µM.
For the compound `COc1cccnc1-c1ccc2c(c1)/C(=C/c1[nH]c(C)cc1C)C(=O)N2`, the inhibition result in the assay listed under Homo sapiens was “Active”. Besides, the half-inhibitory concentration (IC50) in the assay on FaDu [5] was 2.52 µM.
Turning to `CCOC(=O)CCc1ccc(-c2nc(-c3ccc4c(c3)/C(=C/c3[nH]c(C)c(C(=O)NCCN(CC)CC)c3C)C(=O)N4)cs2)cc1`, the inhibition entry in the assay filed under Homo sapiens is “Active”.
